Measured values: patent US20180086749A1, “INHIBITORS OF VIRUSES” (priority 2015, published 2018)
Where two headings read alike, the source gives them in different places.

What was measured:
[1] = system: Ebola virus-GFP; test: microbe, parasite or virus in culture; type: cell-based, Zaire ebolavirus
[2] = system: SARS-CoV; type: cell-based, Severe acute respiratory syndrome coronavirus
[3] = system: ZIKV/PRVABC59; test: Dose-response EC50, ZIKV/PRVABC59; type: cell-based; settings: Zika virus, Vero 76, Vero76, MOI 0.05
[4] = system: HIV-1; test: HIV-1 viral infectivity assay (TZM-bl); type: cell-based; parameters: reduction in viral infectivity: dose or concentration left out as unconfirmed
[5] = system: HEK 293T cells; test: ApoTox-Glo Triplex viability, cytotoxicity, apoptosis assay; settings: four days exposure

## CN(C(=O)Cc1sccc1F)c1nc2c(s1)CCCC2 [ML416, 2-(3-fluorothiophen-2-yl)-N-methyl-N-(4,5,6,7-tetrahydro-1,3-benzothiazol-2-yl)acetamide]
[1]
  EC50: 260 nM
[1]; Zaire ebolavirus, HeLa
  EC50: 300 nM
[2]
  antiviral activity (blank spaces of Table 2): initial results have shown activity
[3]
  EC50: 2200 nM
[4]; Human immunodeficiency virus 1, TZM-bl, read-out: inhibition at 10 μM
  inhibition at 10 µM: 94%
[4]; TZM-bl reporter system, luciferase
  reduction in viral infectivity: 94%
[5]
  concentration up to which no significant cytotoxicity and apoptosis: up to 25 μM
